Data published in patent US20240158386A1, “BENZOXAZOLONE INHIBITORS OF INFLAMMASOMES” (ICAHN SCHOOL OF MEDICINE AT MOUNT SINAI, priority 2021, published 2024).

What was measured:
IL6 production = test: IL-6 production in cell culture supernatant (ELISA); assay type: cell-based, mouse; conditions: FIG. 3B
Experimental: (§1) Cytokine quantification. IL-1β in cell supernatants and brain tissue samples—after the different treatment groups—was quantified using the Mouse IL-1 beta/IL-1F2 DuoSet ELISA kit (R&D systems), IL-6 in cell culture supernatant was measured through the Mouse IL-6 ELISA kit (ThermoFisher), TNF-α in cell culture supernatants was determined using the Mouse TNF-alpha DuoSet ELISA (R*D systems), and IL-18 in brain tissue was measured through the IL-18 Mouse ELISA Kit (Invitrogen) following the manufacturers' recommended protocol. IL-1β precursor and cleaved IL-1β in the FC of mice treated with vehicles, LPS, or C77-LPS was assessed by western blot. All samples were run in technical duplicates.

[1] = system: ASC specks following NLRP3 activation; test: ASC speck formation / ASC oligomerization in m-Cerulean ASC labeled macrophages; assay type: cell-based, murine; conditions: NLRP3 activation with LPS and ATP or HMGB1 and ATP (FIG. 3F)
Experimental: m-Cerulean ASC labeled macrophages. NLRP3 Knock Out immortalized murine macrophages, stably expressing m-Cerulean-ASC, and NLRP3-Flag were a kind donation of Prof. Eicke Latz, (Institute of Innate Immunity, University of Bonn, Germany). Murine macrophages were maintained in high glucose DMEM medium supplemented with 10% FBS, 1% sodium pyruvate, and passaged every 2-3 days, before reaching confluence.
For ASC speck formation evaluation, murine macrophages were seeded in 96 well SCREENSTAR black microplates with clear base, 24 hours before stimulation. Then, cells were incubated for 1 hour with different concentrations of the inhibitors, or with the same DMSO volume for positive and negative controls for NLRP3 activation—DMSO-LPS-ATP or only DMSO, respectively. 0.5 μM MCC950 was used as a positive control for inhibition of NLRP3-mediated ASC oligomerization. NLRP3 activation was induced through treatment with 250 ng/ml LPS for 2.5 hours, followed by addition of 4.5 mM ATP for 45 min. Cells were then fixed and counterstained in a single step, as previously described (Stutz, A. et al. ASC Speck Formation as a Readout for Inflammasome Activation. in The Inflammasome (eds. De Nardo, C. M. & Latz, E.) vol. 1040 91-101 (Humana Press, 2013).). For that, a stock solution of DRAQS in formaldehyde was used, being the final concentrations 1% formaldehyde and 2.5 μM DRAQ5.
ASC oligomerization determination. […] ASC specks in cells pretreated with C75, C77, C78, and C97, before NLRP3 activation (as above indicated), were visualized with a widefield Leica DMi8 fluorescence microscope, using the 20× objective. […] For image analysis and speck quantification, ImageJ was used https://imagej.nih.gov/ij/index.html. Speck and nuclei quantification was performed as previously described in Stutz et al. When required (overlapping nuclei), the watershed separation algorithm was used to separate the particles. […] The rate of speck positive cells was calculated by normalizing the number of speck positive cells to the number of nuclei. […]

NLRC4 inflammasome = biological target: T1, NLRC4 inflammasome (Mus musculus, UniProt Q3UP24); test: NLRC4 inflammasome activation assay: IL-1β release, microglia from NLRP3 KO mice, LPS and flagellin; assay type: cell-based; conditions: FIG. 3A
T1 construct: endogenous in cells; host or cells: primary microglia from NLRP3 KO mice
Experimental: AIM2, NLRP7, and NLRC4 inflammasomes activation assays. […] AIM2 inflammasome activation was induced through the addition of 100 ng/ml LPS for 2 hours, followed by transfection of 1 μg poly(dA:dT) using Lipofectamine 2000 during 2 hours, following the manufacturer recommendations. NLRC4 was activated by treatment with 150 ng/ml LPS for 2 hours, before transfection of 1 μg flagellin during 2 hours, using lipofectamine 2000 as transfection reagent. Negative and positive controls were pre-treated with the same DMSO percentage as cells treated with the inhibitors. Negative controls were kept untreated after DMSO addition, while LPS-poly(dA:dT) or LPS-flagellin was added to positive controls for AIM2, and NLRC4 activation, respectively. For activation of the NLRP7 inflammasome different conditions were assessed: treatment of WT microglia cultures with 400 ng/ml fibroblast-stimulating lipopeptide-1 (fsl-1) for 7 hours, priming with 150 ng/ml LPS for 1 hour and treatment with 400 ng/ml fsl-1 for 7 hours, and priming with 150 ng/ml LPS and transfection of 400 ng/ml fsl-1 with lipofectamine. MCC950 was used as a negative control for NLRC4 and AIM-2 inhibition. Cells were pretreated with 5 μM MCC950 before LPS addition, and 2 hours later the NLRC4 and AIM-2 activation was induced through addition of their specific activators. Cell supernatants were collected for IL-1β measurement.
as §1

microglia cultures = test: Cell viability assay (CytoTox 96 cytotoxicity); assay type: cell-based, murine
Experimental: NLRP3 inflammasome activation assay. Primary microglia cultures were incubated with the compounds that inhibited IL-1β production in THP1 macrophages. Cells pretreated with 100 μM of the compounds—or with the same DMSO volume, in the case of control samples—were primed with 400 ng/ml LPS for 3 hours, and activated with 4.5 mM ATP for 45 minutes or […] nigericin for 1 hour. Dose-response curves were conducted by incubating microglia cultures with different concentrations of the selected compounds, ranging from 0.001 to 100 μM, 1 hour before NLRP3 activation with LPS and ATP. Supernatants were collected for IL-1β and toxicity assessments.
Cell viability assays. The cytotoxic effect of the compounds identified by in-vitro screening was assayed with the Cyto Tox 96® NonRadioactive Cytotoxicity Assay (Promega), following the recommendations of the manufacturer.

TNF-α production = TNF-α production in cell culture supernatant (ELISA); assay type: cell-based, mouse; conditions: FIG. 3B
Experimental: as §1

T1 sequence (Q3UP24 whole entry): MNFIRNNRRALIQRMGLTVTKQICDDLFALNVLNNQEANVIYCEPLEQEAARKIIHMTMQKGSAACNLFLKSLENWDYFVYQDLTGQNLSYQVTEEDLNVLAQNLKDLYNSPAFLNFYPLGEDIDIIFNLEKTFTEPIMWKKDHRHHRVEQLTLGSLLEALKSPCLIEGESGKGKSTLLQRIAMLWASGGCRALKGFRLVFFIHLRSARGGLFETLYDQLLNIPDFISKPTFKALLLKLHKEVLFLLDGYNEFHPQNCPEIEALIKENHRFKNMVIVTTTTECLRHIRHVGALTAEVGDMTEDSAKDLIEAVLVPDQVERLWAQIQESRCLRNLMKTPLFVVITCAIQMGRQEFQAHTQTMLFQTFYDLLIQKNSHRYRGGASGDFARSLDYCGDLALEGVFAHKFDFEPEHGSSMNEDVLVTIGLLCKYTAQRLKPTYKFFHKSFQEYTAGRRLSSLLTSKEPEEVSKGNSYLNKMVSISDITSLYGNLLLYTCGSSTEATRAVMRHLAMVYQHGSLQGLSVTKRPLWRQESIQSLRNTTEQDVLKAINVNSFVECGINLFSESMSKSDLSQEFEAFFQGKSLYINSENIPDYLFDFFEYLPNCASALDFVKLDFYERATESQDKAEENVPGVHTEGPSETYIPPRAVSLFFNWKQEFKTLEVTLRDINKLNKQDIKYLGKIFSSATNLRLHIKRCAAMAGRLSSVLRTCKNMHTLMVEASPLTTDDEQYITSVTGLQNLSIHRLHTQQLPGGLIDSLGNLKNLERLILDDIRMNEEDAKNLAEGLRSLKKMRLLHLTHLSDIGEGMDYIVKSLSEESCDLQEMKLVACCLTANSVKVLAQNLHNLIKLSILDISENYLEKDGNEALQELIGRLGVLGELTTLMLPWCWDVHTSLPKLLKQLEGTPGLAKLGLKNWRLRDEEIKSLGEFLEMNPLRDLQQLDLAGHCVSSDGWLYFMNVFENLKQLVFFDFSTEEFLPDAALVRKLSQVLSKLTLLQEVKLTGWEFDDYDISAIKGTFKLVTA

## O=C(Cn1c(=O)oc2ccccc21)NCc1cncc(-c2ccsc2)c1 [Compound C77]
IL6 production
  inhibition of IL6 production: did not inhibit
[1]
  concentrations with observable reduction of speck positive cells: ≥ 10 nM
NLRC4 inflammasome
  IC50: 4.15 ± 1.65 µM
Microglia cultures; 50 μM
  toxicity on microglia cultures: significantly reduced the viability of the culture
Microglia cultures; concentrations lower than 50 μM
  toxicity on microglia cultures: did not show significant toxicity levels
TNF-α production
  inhibition of TNF-α production: did not inhibit
